Results: PubChem BioAssay (NCI)
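Five compound concentrations were applied to cells in 96-well plates for 48 hours; endpoints were derived by simple linear interpolation of the resulting dose-response curve. GI50: concentration for 50% inhibition of growth. TGI is the concentration that stops growth completely.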

How the values were obtained:
Experiment in all cases: NCI-60 cell line screen, 48 h
[1] = tested on: MDA-MB-231 breast
[2] = tested on: NCI/ADR-RES ovarian
[3] = tested on: HT29 colon
[4] = tested on: UACC-257 melanoma
[5] = tested on: SW-620 colon
[6] = tested on: OVCAR-4 ovarian
[7] = tested on: OVCAR-5 ovarian
[8] = tested on: UO-31 renal
[9] = tested on: PC-3 prostate
[10] = tested on: NCI-H522 lung
[11] = tested on: SK-MEL-28 melanoma
[12] = tested on: HCT-15 colon
[13] = tested on: UACC-62 melanoma
[14] = tested on: SK-MEL-5 melanoma
[15] = tested on: T-47D breast
[16] = tested on: HOP-62 NSCLC
[17] = tested on: COLO 205 colon
[18] = tested on: SNB-19 CNS
[19] = tested on: HL-60(TB) leukemia
[20] = tested on: OVCAR-3 ovarian
[21] = tested on: SF-539 CNS
[22] = tested on: RXF 393 renal
[23] = tested on: SK-MEL-2 melanoma
[24] = tested on: BT-549 breast
[25] = tested on: CAKI-1 renal
[26] = tested on: 786-0 renal
[27] = tested on: MDA-MB-435
[28] = tested on: A549 NSCLC
[29] = tested on: U251 CNS
[30] = tested on: SNB-75 CNS
[31] = tested on: LOX IMVI melanoma
[32] = tested on: CCRF-CEM leukemia
[33] = tested on: OVCAR-8 ovarian
[34] = tested on: HCC-2998 colon
[35] = tested on: MALME-3M melanoma
[36] = tested on: TK-10 renal
[37] = tested on: SF-295 CNS
[38] = tested on: KM12 colon
[39] = tested on: MCF7 breast
[40] = tested on: SK-OV-3 ovarian
[41] = tested on: HS 578T breast
[42] = tested on: SR leukemia
[43] = tested on: MOLT-4 leukemia
[44] = tested on: MDA-MB-468 breast
[45] = tested on: K-562 leukemia
[46] = tested on: SF-268 CNS
[47] = tested on: DU-145 prostate
[48] = tested on: NCI-H23 lung
[49] = tested on: NCI-H460 lung
[50] = tested on: SN12C renal
[51] = tested on: ACHN renal
[52] = tested on: A498 renal
[53] = tested on: HCT-116 colon
[54] = tested on: NCI-H226 lung
[55] = tested on: RPMI-8226 leukemia
[56] = tested on: EKVX NSCLC
[57] = tested on: M14 melanoma
[58] = tested on: HOP-92 NSCLC
[59] = tested on: IGROV1 ovarian

`O=C(CNc1nc(-c2ccccc2)cs1)Nc1ccc([N+](=O)[O-])cc1Cl` showed a GI50 [1] of 4.94 µM, a TGI [1] of 17.1 µM and a GI50 [2] of 4.11 µM. The TGI [2] was 14.6 µM, the GI50 [3] was 7.63 µM and the TGI [3] was 20.4 µM. The GI50 [4] was 7.55 µM, the TGI [4] was 20.2 µM and the GI50 [5] was 4.47 µM. For the same molecule, the TGI [5] was 16.2 µM, the GI50 [6] was 6.55 µM and the TGI [6] was 19.5 µM. For the same molecule, the GI50 [7] was 6.18 µM, the TGI [7] was 20.2 µM and the GI50 [8] was 3.37 µM. For the same molecule, the TGI [8] was 15.5 µM, the GI50 [9] was 5.17 µM and the TGI [9] was 17.9 µM. It also gave a GI50 [10] of 2.9 µM, a TGI [10] of 12 µM and a GI50 [11] of 12.1 µM. It also gave a TGI [11] of 24.5 µM, a GI50 [12] of 3.34 µM and a TGI [12] of 12.8 µM. For the same molecule, the GI50 [13] was 3.6 µM, the TGI [13] was 15.4 µM and the GI50 [14] was 3.66 µM. The TGI [14] was 14 µM, the GI50 [15] was 3.37 µM and the TGI [15] was 13.5 µM. The GI50 [16] was 7.02 µM, the TGI [16] was 20 µM and the GI50 [17] was 11.5 µM. The TGI [17] was 23.7 µM, the GI50 [18] was 7.71 µM and the TGI [18] was 20.3 µM. For the same molecule, the GI50 [19] was 2.8 µM, the TGI [19] was 11 µM and the GI50 [20] was 3.62 µM. For the same molecule, the TGI [20] was 14.1 µM, the GI50 [21] was 5.36 µM and the TGI [21] was 17.6 µM. It also gave a GI50 [22] of 4.38 µM, a TGI [22] of 15 µM and a GI50 [23] of 8.86 µM. For the same molecule, the TGI [23] was 21 µM, the GI50 [24] was 2.29 µM and the TGI [24] was 7.66 µM. It also gave a GI50 [25] of 3.34 µM, a TGI [25] of 14.5 µM and a GI50 [26] of 3.3 µM. The TGI [26] was 13.2 µM, the GI50 [27] was 4.88 µM and the TGI [27] was 16.9 µM. For the same molecule, the GI50 [28] was 6.05 µM, the TGI [28] was 19 µM and the GI50 [29] was 4.42 µM. It also gave a TGI [29] of 16.8 µM, a GI50 [30] of 1.73 µM and a TGI [30] of 9.94 µM. The GI50 [31] was 2.96 µM, the TGI [31] was 11.7 µM and the GI50 [32] was 3.05 µM. The TGI [32] was 12.2 µM, the GI50 [33] was 5.69 µM and the TGI [33] was 18.3 µM. For the same molecule, the GI50 [34] was 6.94 µM, the TGI [34] was 19.7 µM and the GI50 [35] was 9 µM. It also gave a TGI [35] of 21 µM, a GI50 [36] of 8.04 µM and a TGI [36] of 20.5 µM. For the same molecule, the GI50 [37] was 4.47 µM, the TGI [37] was 16.6 µM and the GI50 [38] was 4.17 µM. It also gave a TGI [38] of 14.9 µM, a GI50 [39] of 3.26 µM and a TGI [39] of 13.4 µM. The GI50 [40] was 6.18 µM, the TGI [40] was 19.2 µM and the GI50 [41] was 3.74 µM. It also gave a TGI [41] of 15.1 µM, a GI50 [42] of 4.67 µM and a TGI [42] of 17.4 µM. For the same molecule, the GI50 [43] was 3.17 µM, the TGI [43] was 11.6 µM and the GI50 [44] was 1.96 µM. It also gave a TGI [44] of 4.88 µM, a GI50 [45] of 3.42 µM and a TGI [45] of 13.9 µM. For the same molecule, the GI50 [46] was 3.98 µM, the TGI [46] was 16.2 µM and the GI50 [47] was 10.6 µM. The TGI [47] was 22.5 µM, the GI50 [48] was 4.6 µM and the TGI [48] was 17 µM. The GI50 [49] was 9.34 µM, the TGI [49] was 21.2 µM and the GI50 [50] was 3.72 µM. For the same molecule, the TGI [50] was 13.9 µM, the GI50 [51] was 5.51 µM and the TGI [51] was 18.2 µM. The GI50 [52] was 7.11 µM, the TGI [52] was 20.1 µM and the GI50 [53] was 3.36 µM. It also gave a TGI [53] of 12.6 µM, a GI50 [54] of 6.78 µM and a TGI [54] of 19.3 µM. For the same molecule, the GI50 [55] was 2.99 µM, the TGI [55] was 13.2 µM and the GI50 [56] was 3.44 µM. The TGI [56] was 14.3 µM, the GI50 [57] was 3.6 µM and the TGI [57] was 13.5 µM. For the same molecule, the GI50 [58] was 4.28 µM, the TGI [58] was 16.7 µM and the GI50 [59] was 4.29 µM. For the same molecule, the TGI [59] was 15.5 µM.
